From patent US20240293412A1, “NAMPT ACTIVATORS FOR TREATING METABOLIC AND NEUROLOGICAL DISORDERS” (The Board of Trustees of the University of Illinois, priority 2021, published 2024)

Columns and labels:
THP-1 cells = experiment: cells; settings: Homo sapiens, THP-1, 24 h; for Emax: read-out: Maximum activation (%)
NAMPT = NAMPT (Homo sapiens (Human), UniProt P43490); experiment: NAMPT coupled enzyme activity assay; type: biochemical; settings: NAMPT activation, Table 2; for Emax: read-out: Maximum activation (%)
NAMPT, sequence (P43490 whole entry): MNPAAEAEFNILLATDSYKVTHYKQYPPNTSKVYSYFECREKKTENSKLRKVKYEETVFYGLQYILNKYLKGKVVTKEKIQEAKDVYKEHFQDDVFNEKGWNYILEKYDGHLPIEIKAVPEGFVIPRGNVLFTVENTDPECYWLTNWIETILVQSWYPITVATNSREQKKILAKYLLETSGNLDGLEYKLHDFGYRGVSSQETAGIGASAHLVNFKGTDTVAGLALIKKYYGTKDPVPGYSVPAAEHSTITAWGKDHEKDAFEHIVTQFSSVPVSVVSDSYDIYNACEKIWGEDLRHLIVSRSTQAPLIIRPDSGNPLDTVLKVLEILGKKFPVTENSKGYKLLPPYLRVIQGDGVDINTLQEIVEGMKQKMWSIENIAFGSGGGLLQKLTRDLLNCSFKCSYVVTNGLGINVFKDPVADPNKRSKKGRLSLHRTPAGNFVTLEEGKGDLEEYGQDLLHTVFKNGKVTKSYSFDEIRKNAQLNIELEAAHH

Structure (SMILES)	EC50 (THP-1 cells) [µM]	Emax (THP-1 cells) [%]	EC50 (NAMPT) [µM]	Emax (NAMPT) [%]
O=C(NCc1ccc2sccc2c1)[C@H]1CCCN(c2ncnc3nn(-c4ccc(C(F)(F)F)cc4)cc23)C1	0.74	150		
CSc1ccc(CNC(=O)[C@H]2CCCN(c3ncnc4nn(-c5ccc(C)cc5)cc34)C2)cc1	3.2	202		
CSc1ccc(CNC(=O)C2CCN(c3ncnc4nn(-c5ccc(C)cc5)cc34)CC2)cc1			9.4	240
Cc1ccc(-n2cc3c(N4CCCC(C(=O)NCc5cc[nH]n5)C4)ncnc3n2)cc1 (stereo not drawn)			> 10	
Cc1ccc(-n2cc3c(N4CCCC(C(=O)NCc5ccc(N(C)C)cc5)C4)ncnc3n2)cc1 (stereo not drawn)			0.16	186
